Measured values: patent US9695155B2, “Herbicidal substituted pyrimidinyloxy benzene compounds” (E. I. DU PONT DE NEMOURS AND COMPANY, priority 2013, dated 2017)

Key:
[1] = system: barnyardgrass; experiment: Test A preemergence; type: in vivo, Echinochloa crus-galli
In short: (§1)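 Pre- and postemergence greenhouse screen. Soil: loam + sand. Spray carrier: solvent mixture, non-phytotoxic, with surfactant. Post timing at 1–2 leaves, height 2–10 cm. Readout: visual injury on a 0–100 scale roughly 10 days after application, untreated plants as reference.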

[2] = system: large (Lg) crabgrass; experiment: Test A preemergence; type: in vivo, Digitaria sanguinalis
In short: as §1

[3] = system: giant foxtail; experiment: Test A preemergence; type: in vivo, Setaria faberii
In short: as §1

[4] = system: morningglory; experiment: Test A preemergence; type: in vivo, Ipomoea spp.
In short: as §1

[5] = system: pigweed; experiment: Test A preemergence; type: in vivo, Amaranthus retroflexus
In short: as §1

[6] = system: velvetleaf; experiment: Test A preemergence; type: in vivo, Abutilon theophrasti
In short: as §1

[7] = system: wheat; experiment: Test A preemergence; type: in vivo, Triticum aestivum
In short: as §1

[8] = system: corn; experiment: Test A preemergence; type: in vivo, Zea mays
In short: as §1

[9] = system: barnyardgrass; experiment: Test A postemergence; type: in vivo, Echinochloa crus-galli
In short: as §1

[10] = system: large (Lg) crabgrass; experiment: Test A postemergence; type: in vivo, Digitaria sanguinalis
In short: as §1

[11] = system: giant foxtail; experiment: Test A postemergence; type: in vivo, Setaria faberii
In short: as §1

[12] = system: morningglory; experiment: Test A postemergence; type: in vivo, Ipomoea spp.
In short: as §1

[13] = system: pigweed; experiment: Test A postemergence; type: in vivo, Amaranthus retroflexus
In short: as §1

[14] = system: velvetleaf; experiment: Test A postemergence; type: in vivo, Abutilon theophrasti
In short: as §1

[15] = system: wheat; experiment: Test A postemergence; type: in vivo, Triticum aestivum
In short: as §1

[16] = system: corn; experiment: Test A postemergence; type: in vivo, Zea mays
In short: as §1

[17] = system: rice; experiment: Test B flooded paddy test; type: in vivo, Oryza sativa; details: Flood, 250 g ai/ha; 0 to 100 scale where 0 is no effect and 100 is complete control
In short: (§2)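 Scores from 0 (no effect) to 100 (complete control) are visual comparisons with controls, taken 13 to 15 days after compound was applied into floodwater 3 cm deep around 2-leaf plants.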

[18] = system: sedge, umbrella; experiment: Test B flooded paddy test; type: in vivo, Cyperus difformis; details: Flood, 250 g ai/ha; 0 to 100 scale where 0 is no effect and 100 is complete control
In short: as §2

[19] = system: Heteranthera limosa; experiment: Test B flooded paddy test; type: in vivo; details: Flood, 250 g ai/ha; 0 to 100 scale where 0 is no effect and 100 is complete control
In short: as §2

[20] = system: barnyardgrass; experiment: Test B flooded paddy test; type: in vivo, Echinochloa crus-galli; details: Flood, 250 g ai/ha; 0 to 100 scale where 0 is no effect and 100 is complete control
In short: as §2

[21] = 500 g ai/ha, 0 to 100 scale where 0 is no effect and 100 is complete control
[22] = 125 g ai/ha, 0 to 100 scale, 0 no effect, 100 complete control
[23] = 125 g ai/ha, 0 to 100 scale where 0 is no effect and 100 is complete control
[24] = 500 g ai/ha, 0 to 100 scale, 0 no effect, 100 complete control, approx. 10 days
[25] = 500 g ai/ha, 0 to 100 scale, 0 no effect, 100 complete control

## CNN=Cc1cccc(Oc2ncc(Cl)cn2)c1-n1cc(Cl)cn1 [Compound 296]
[1]; 125 g ai/ha
  Barnyardgrass plant response rating (0 to 100 scale, 0 is no effect, 100 is complete control): 0
[1]; [21]
  Barnyardgrass plant response rating: 10
[2]; 125 g ai/ha
  Crabgrass, Large plant response rating (0 to 100 scale): 0
[2]; [21]
  Crabgrass, Large plant response rating: 60
[3]; 125 g ai/ha
  Foxtail, Giant plant response rating (0 to 100 scale): 0
[3]; [21]
  Foxtail, Giant plant response rating: 10
[4]; 125 g ai/ha
  Morningglory plant response rating (0 to 100 scale): 0
[4]; [21]
  Morningglory plant response rating: 0
[5]; 125 g ai/ha
  Pigweed plant response rating (0 to 100 scale): 0
[5]; [21]
  Pigweed plant response rating: 90
[6]; 125 g ai/ha
  Velvetleaf plant response rating (0 to 100 scale): 0
[6]; [21]
  Velvetleaf plant response rating: 10
[7]; 125 g ai/ha
  Wheat plant response rating (0 to 100 scale): 0
[7]; [21]
  Wheat plant response rating: 0
[8]; 125 g ai/ha
  Corn plant response rating (0 to 100 scale): 0
[8]; [21]
  Corn plant response rating: 0
[9]; [22]
  Plant response rating, Barnyardgrass: 0
[9]; [21]
  Plant response rating, Barnyardgrass: 0
[10]; [22]
  Plant response rating, Crabgrass, Large: 0
[10]; [21]
  Plant response rating, Crabgrass, Large: 0
[11]; [22]
  Plant response rating, Foxtail, Giant: 0
[11]; [21]
  Plant response rating, Foxtail, Giant: 0
[12]; [22]
  Plant response rating, Morningglory: 20
[12]; [21]
  Plant response rating, Morningglory: 20
[13]; [22]
  Plant response rating, Pigweed: 30
[13]; [21]
  Plant response rating, Pigweed: 100
[14]; [22]
  Plant response rating, Velvetleaf: 30
[14]; [21]
  Plant response rating, Velvetleaf: 30
[15]; [22]
  Plant response rating, Wheat: 0
[15]; [21]
  Plant response rating, Wheat: 20
[16]; [22]
  Plant response rating, Corn: 0
[16]; [21]
  Plant response rating, Corn: 10
[17]
  Plant response rating, Rice: 0
[18]
  Plant response rating, Sedge, Umbrella: 0
[19]
  Plant response rating, Ducksalad: 0
[20]
  Plant response rating, Barnyardgrass: 0

## FC(F)(F)c1cnc(Oc2ccccc2-n2cc(C(F)(F)F)cn2)nc1 [Compound 17]
[1]; [23]
  Barnyardgrass plant response rating: 50
[1]; [24]
  Barnyardgrass plant response rating: 60
[2]; [23]
  Crabgrass, Large plant response rating: 40
[2]; [24]
  Crabgrass, Large plant response rating: 90
[3]; [23]
  Foxtail, Giant plant response rating: 60
[3]; [24]
  Foxtail, Giant plant response rating: 90
[4]; [23]
  Morningglory plant response rating: 0
[4]; [24]
  Morningglory plant response rating: 20
[5]; [23]
  Pigweed plant response rating: 100
[5]; [24]
  Pigweed plant response rating: 100
[6]; [23]
  Velvetleaf plant response rating: 70
[6]; [24]
  Velvetleaf plant response rating: 90
[7]; [23]
  Wheat plant response rating: 0
[7]; [24]
  Wheat plant response rating: 70
[8]; [23]
  Corn plant response rating: 0
[8]; [24]
  Corn plant response rating: 0
[9]; [23]
  Plant response rating, Barnyardgrass: 0
[9]; [25]
  Plant response rating, Barnyardgrass: 20
[10]; [23]
  Plant response rating, Crabgrass, Large: 20
[10]; [25]
  Plant response rating, Crabgrass, Large: 90
[11]; [23]
  Plant response rating, Foxtail, Giant: 20
[11]; [25]
  Plant response rating, Foxtail, Giant: 90
[12]; [23]
  Plant response rating, Morningglory: 20
[12]; [25]
  Plant response rating, Morningglory: 50
[13]; [23]
  Plant response rating, Pigweed: 70
[13]; [25]
  Plant response rating, Pigweed: 100
[14]; [23]
  Plant response rating, Velvetleaf: 50
[14]; [25]
  Plant response rating, Velvetleaf: 100
[15]; [23]
  Plant response rating, Wheat: 0
[15]; [25]
  Plant response rating, Wheat: 50
[16]; [23]
  Plant response rating, Corn: 0
[16]; [25]
  Plant response rating, Corn: 40
[17]
  Plant response rating, Rice: 25
[18]
  Plant response rating, Sedge, Umbrella: 90
[19]
  Plant response rating, Ducksalad: 75
[20]
  Plant response rating, Barnyardgrass: 0

## Clc1cnc(Oc2cccc(Cl)c2-n2cc(Br)cn2)nc1 [Compound 219]
[1]; 125 g ai/ha
  Barnyardgrass plant response rating (0 to 100 scale, 0 is no effect, 100 is complete control): 30
[1]; [21]
  Barnyardgrass plant response rating: 90
[2]; 125 g ai/ha
  Crabgrass, Large plant response rating (0 to 100 scale): 100
[2]; [21]
  Crabgrass, Large plant response rating: 100
[3]; 125 g ai/ha
  Foxtail, Giant plant response rating (0 to 100 scale): 100
[3]; [21]
  Foxtail, Giant plant response rating: 100
[4]; 125 g ai/ha
  Morningglory plant response rating (0 to 100 scale): 0
[4]; [21]
  Morningglory plant response rating: 10
[5]; 125 g ai/ha
  Pigweed plant response rating (0 to 100 scale): 100
[5]; [21]
  Pigweed plant response rating: 100
[6]; 125 g ai/ha
  Velvetleaf plant response rating (0 to 100 scale): 10
[6]; [21]
  Velvetleaf plant response rating: 20
[7]; 125 g ai/ha
  Wheat plant response rating (0 to 100 scale): 0
[7]; [21]
  Wheat plant response rating: 0
[8]; 125 g ai/ha
  Corn plant response rating (0 to 100 scale): 0
[8]; [21]
  Corn plant response rating: 10
[9]; [23]
  Barnyardgrass plant response rating: 50
[9]; [21]
  Plant response rating, Barnyardgrass: 100
[10]; [23]
  Crabgrass, Large plant response rating: 90
[10]; [21]
  Plant response rating, Crabgrass, Large: 100
[11]; [23]
  Foxtail, Giant plant response rating: 70
[11]; [21]
  Plant response rating, Foxtail, Giant: 90
[12]; [23]
  Morningglory plant response rating: 70
[12]; [21]
  Plant response rating, Morningglory: 100
[13]; [23]
  Pigweed plant response rating: 100
[13]; [21]
  Plant response rating, Pigweed: 100
[14]; [23]
  Velvetleaf plant response rating: 100
[14]; [21]
  Plant response rating, Velvetleaf: 100
[15]; [23]
  Wheat plant response rating: 0
[15]; [21]
  Plant response rating, Wheat: 70
[16]; [23]
  Corn plant response rating: 20
[16]; [21]
  Plant response rating, Corn: 70
[17]
  Plant response rating, Rice: 0
[18]
  Plant response rating, Sedge, Umbrella: 85
[19]
  Plant response rating, Ducksalad: 100
[20]
  Plant response rating, Barnyardgrass: 0

## Clc1cnc(Oc2ccccc2-n2cnc(Br)n2)nc1 [Compound 46]
[1]; [23]
  Plant response rating, Barnyardgrass: 0
[1]; [24]
  Barnyardgrass plant response rating: 20
[2]; [23]
  Plant response rating, Crabgrass, Large: 20
[2]; [24]
  Crabgrass, Large plant response rating: 100
[3]; [23]
  Plant response rating, Foxtail, Giant: 0
[3]; [24]
  Foxtail, Giant plant response rating: 80
[4]; [23]
  Plant response rating, Morningglory: 0
[4]; [24]
  Morningglory plant response rating: 0
[5]; [23]
  Plant response rating, Pigweed: 20
[5]; [24]
  Pigweed plant response rating: 90
[6]; [23]
  Plant response rating, Velvetleaf: 0
[6]; [24]
  Velvetleaf plant response rating: 0
[7]; [23]
  Plant response rating, Wheat: 0
[7]; [24]
  Wheat plant response rating: 0
[8]; [23]
  Plant response rating, Corn: 0
[8]; [24]
  Corn plant response rating: 0
[9]; [23]
  Plant response rating, Barnyardgrass: 0
[9]; [25]
  Plant response rating, Barnyardgrass: 20
[10]; [23]
  Plant response rating, Crabgrass, Large: 0
[10]; [25]
  Plant response rating, Crabgrass, Large: 20
[11]; [23]
  Plant response rating, Foxtail, Giant: 0
[11]; [25]
  Plant response rating, Foxtail, Giant: 20
[12]; [23]
  Plant response rating, Morningglory: 20
[12]; [25]
  Plant response rating, Morningglory: 50
[13]; [23]
  Plant response rating, Pigweed: 40
[13]; [25]
  Plant response rating, Pigweed: 80
[14]; [23]
  Plant response rating, Velvetleaf: 0
[14]; [25]
  Plant response rating, Velvetleaf: 40
[15]; [23]
  Plant response rating, Wheat: 0
[15]; [25]
  Plant response rating, Wheat: 0
[16]; [23]
  Plant response rating, Corn: 0
[16]; [25]
  Plant response rating, Corn: 30
[17]
  Plant response rating, Rice: 0
[18]
  Plant response rating, Sedge, Umbrella: 0
[19]
  Plant response rating, Ducksalad: 0
[20]
  Plant response rating, Barnyardgrass: 0
